# Data published in patent publication US20240294522A1 (Lead Discovery Center GmbH, priority 2021, published 2024).
# Experiments:
# [1] = target: T1, GRK5 (Homo sapiens, UniProt P34947); assay: Lance Kinase Activity Assay, GRK5; settings: biochemical Lance kinase activity assay; class symbols A-F; read-out: GRK5 LANCE Assay (IC-50)
# T1 construct: purchased Thermo Scientific
# Summary of the method: (§1)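 IC50s from sigmoidal dose-response over 0.0025-10 μM compound, with phosphorylated ULight substrate detected by Eu anti-phospho antibody FRET after EDTA quench.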
# [2] = target: T2, GRK2 (Homo sapiens, UniProt P25098); assay: Lance Kinase Activity Assay, GRK2; settings: biochemical Lance kinase activity assay; class symbols A-F; read-out: GRK2 LANCE Assay (IC-50)
# T2 construct: purchased Thermo Scientific
# T2 sequence (P25098 1-689): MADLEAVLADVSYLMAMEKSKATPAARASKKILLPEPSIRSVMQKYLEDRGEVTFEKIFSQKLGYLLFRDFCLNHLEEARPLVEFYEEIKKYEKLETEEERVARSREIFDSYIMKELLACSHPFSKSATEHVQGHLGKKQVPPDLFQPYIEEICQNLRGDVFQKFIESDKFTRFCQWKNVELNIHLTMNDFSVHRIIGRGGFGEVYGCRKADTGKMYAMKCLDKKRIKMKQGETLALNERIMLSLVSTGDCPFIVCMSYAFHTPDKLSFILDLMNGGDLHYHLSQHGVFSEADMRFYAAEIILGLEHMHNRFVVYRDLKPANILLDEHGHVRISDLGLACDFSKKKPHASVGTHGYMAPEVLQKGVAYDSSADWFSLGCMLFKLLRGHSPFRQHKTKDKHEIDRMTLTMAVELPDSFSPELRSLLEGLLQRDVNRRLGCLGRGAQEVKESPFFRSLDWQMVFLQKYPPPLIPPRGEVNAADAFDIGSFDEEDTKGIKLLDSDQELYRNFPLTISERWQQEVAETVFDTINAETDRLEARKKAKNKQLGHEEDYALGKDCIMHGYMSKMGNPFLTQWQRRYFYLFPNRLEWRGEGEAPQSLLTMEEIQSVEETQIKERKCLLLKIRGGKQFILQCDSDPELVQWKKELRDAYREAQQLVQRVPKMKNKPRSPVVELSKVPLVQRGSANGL
# Summary of the method: as §1
# T1 sequence (P34947 whole entry): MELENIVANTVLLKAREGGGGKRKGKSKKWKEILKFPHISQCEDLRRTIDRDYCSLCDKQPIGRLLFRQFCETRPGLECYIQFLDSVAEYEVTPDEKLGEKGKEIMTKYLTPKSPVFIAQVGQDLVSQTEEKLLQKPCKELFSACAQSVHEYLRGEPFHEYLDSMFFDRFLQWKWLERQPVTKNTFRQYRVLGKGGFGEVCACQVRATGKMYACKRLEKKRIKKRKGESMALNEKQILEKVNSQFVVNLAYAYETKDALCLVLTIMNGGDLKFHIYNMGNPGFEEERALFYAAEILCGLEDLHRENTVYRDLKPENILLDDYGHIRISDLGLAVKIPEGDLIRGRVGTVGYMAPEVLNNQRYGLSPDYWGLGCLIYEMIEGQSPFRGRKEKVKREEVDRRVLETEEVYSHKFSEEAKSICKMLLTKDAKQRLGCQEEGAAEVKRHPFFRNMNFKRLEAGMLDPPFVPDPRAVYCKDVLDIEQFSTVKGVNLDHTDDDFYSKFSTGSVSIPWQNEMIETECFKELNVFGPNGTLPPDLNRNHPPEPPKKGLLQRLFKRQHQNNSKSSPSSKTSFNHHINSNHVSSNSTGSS
Structure (SMILES),IC50 [1] [nM],IC50 [2] [nM]
"N#C/C(=C\c1c[nH]c2ncccc12)C(=O)NCc1ccc(F)cc1 [Example 57, (E)-2-cyano-N-(4-fluorobenzyl)-3-(1H-pyrrolo[2,3-b]pyridin-3-yl)acrylamide]",100 to 500,1000 to 10000
"COc1ccc([C@@H](C)NC(=O)/C=C/c2c[nH]c3nccc(-c4cnn5ccccc45)c23)cc1OC [Example 242, (R,E)-N-(1-(3,4-dimethoxyphenyl)ethyl)-3-(4-(pyrazolo[1,5-a]pyridin-3-yl)-1H-pyrrolo[2,3-b]pyridin-3-yl)acrylamide]",100 to 500,> 10000
"COc1cc(C(C)NC(=O)/C=C/c2c[nH]c3ncc(-c4cnn(C)c4)cc23)ccc1[S+](C)[O-] (stereo not shown) [Example 255, (E)-N-(1-(3-methoxy-4-(methylsulfinyl)phenyl)ethyl)-3-(5-(1-methyl-1H-pyrazol-4-yl)-1H-pyrrolo[2,3-b]pyridin-3-yl)acrylamide]",100 to 500,> 10000
COc1ccc(-c2cnc3[nH]cc(/C=C(/C#N)C(=O)N[C@H](C)c4ccc(OC)c(OC)c4)c3c2)cc1OC [Example 146],50 to 100,> 10000
"COc1ccc([C@@H](C)NC(=O)/C=C/c2c[nH]c3nccc(-c4ccc(N5CCN(C(C)=O)CC5)cc4)c23)cc1OC [Example 235, (R,E)-3-(4-(4-(4-acetylpiperazin-1-yl)phenyl)-1H-pyrrolo[2,3-b]pyridin-3-yl)-N-(1-(3,4-dimethoxyphenyl)ethyl)acrylamide]",50 to 100,> 10000
"CCN(CC)CCC(NC(=O)/C(C#N)=C/c1c[nH]c2ncccc12)c1ccccc1 (stereo not shown) [Example 52, (E)-2-cyano-N-(3-(diethylamino)-1-phenylpropyl)-3-(1H-pyrrolo[2,3-b]pyridin-3-yl)acrylamide]",100 to 500,100 to 500
"COc1ccc([C@@H](C)NC(=O)/C=C/c2c[nH]c3nccc(-c4ccc(NS(C)(=O)=O)cc4)c23)cc1OC [Example 226, (R,E)-N-(1-(3,4-dimethoxyphenyl)ethyl)-3-(4-(4-(methylsulfonamido)phenyl)-1H-pyrrolo[2,3-b]pyridin-3-yl)acrylamide]",50 to 100,1000 to 10000
"COc1ccc([C@@H](C)NC(=O)/C=C/c2c[nH]c3nccc(-c4ccc(CN5CCN(C)CC5)cc4)c23)cc1OC [Example 234, (R,E)-N-(1-(3,4-dimethoxyphenyl)ethyl)-3-(4-(4-((4-methylpiperazin-1-yl)methyl)phenyl)-1H-pyrrolo[2,3-b]pyridin-3-yl)acrylamide]",100 to 500,1000 to 10000
"CC[C@@H](NC(=O)/C(C#N)=C/c1c[nH]c2ncccc12)c1ccccc1 [Example 68, (R,E)-2-cyano-N-(1-phenylpropyl)-3-(1H-pyrrolo[2,3-b]pyridin-3-yl)acrylamide]",100 to 500,100 to 500
"COc1ccc([C@@H](C)NC(=O)/C=C/c2c[nH]c3ncc(-c4cccc(S(C)(=O)=O)c4)cc23)cc1OC [Example 114, (R,E)-N-(1-(3,4-dimethoxyphenyl)ethyl)-3-(5-(3-(methylsulfonyl)phenyl)-1H-pyrrolo[2,3-b]pyridin-3-yl)acrylamide]",≤ 50,1000 to 10000
"N#C/C(=C\c1c[nH]c2ncc(Cl)cc12)C(=O)NCc1cc(F)cc(F)c1 [Example 75, (E)-3-(5-chloro-1H-pyrrolo[2,3-b]pyridin-3-yl)-2-cyano-N-(3,5-difluorobenzyl)acrylamide]",1000 to 10000,> 10000
"N#C/C(=C\c1c[nH]c2ncc(Cl)cc12)C(=O)NCc1ccc(F)cc1 [Example 72, (E)-3-(5-chloro-1H-pyrrolo[2,3-b]pyridin-3-yl)-2-cyano-N-(4-fluorobenzyl)acrylamide]",1000 to 10000,1000 to 10000
"COc1ccc([C@@H](C)NC(=O)/C=C/c2c[nH]c3ncc(-c4cnn(CC(C)O)c4)cc23)cc1OC (stereo partly drawn) [Example 214, (E)-N-((R)-1-(3,4-dimethoxyphenyl)ethyl)-3-(5-(1-(2-hydroxypropyl)-1H-pyrazol-4-yl)-1H-pyrrolo[2,3-b]pyridin-3-yl)acrylamide]",≤ 50,1000 to 10000
"CCN1CCN(S(=O)(=O)c2ccc(-c3cnc4[nH]cc(/C=C(\C#N)C(=O)N[C@H](C)c5ccc(OC)c(OC)c5)c4c3)cc2)CC1 [Example 121, (R,E)-2-cyano-N-(1-(3,4-dimethoxyphenyl)ethyl)-3-(5-(4-((4-ethylpiperazin-1-yl)sulfonyl)phenyl)-1H-pyrrolo[2,3-b]pyridin-3-yl)acrylamide]",100 to 500,> 10000
COc1ccc([C@@H](C)NC(=O)/C(C#N)=C/c2c[nH]c3nccc(-c4ccccc4)c23)cc1OC [Example 175],≤ 50,1000 to 10000
"C[C@@H](NC(=O)/C(C#N)=C/c1c[nH]c2ncccc12)c1ccc(F)c(F)c1 [Example 16, (R,E)-2-cyano-N-(1-(3,4-difluorophenyl)ethyl)-3-(1H-pyrrolo[2,3-b]pyridin-3-yl)acrylamide]",50 to 100,50 to 100

# The next lines start with the values.
IC50 [1] [nM],IC50 [2] [nM],Structure (SMILES)
≤ 50,1000 to 10000,"COc1ccc([C@@H](C)NC(=O)/C=C/c2c[nH]c3ncc(-c4cc(S(C)(=O)=O)ccn4)cc23)cc1OC [Example 259, (R,E)-N-(1-(3,4-dimethoxyphenyl)ethyl)-3-(5-(4-(methylsulfonyl)pyridin-2-yl)-1H-pyrrolo[2,3-b]pyridin-3-yl)acrylamide]"
≤ 50,500 to 1000,COc1ccc([C@@H](C)NC(=O)/C(C#N)=C/c2c[nH]c3ncc(-c4ccc(OCCCN(C)C)cc4)cc23)cc1OC [Example 138]
≤ 50,≤ 50,"COc1cc([C@@H](C)NC(=O)/C=C/c2c[nH]c3ncc(C)cc23)ccc1F [Example 54, (R,E)-N-(1-(4-fluoro-3-methoxyphenyl)ethyl)-3-(5-methyl-1H-pyrrolo[2,3-b]pyridin-3-yl)acrylamide]"
≤ 50,1000 to 10000,"COc1ccc([C@@H](C)NC(=O)/C=C/c2c[nH]c3ncc(-c4cccc(S(=O)(=O)N(C)C)c4)cc23)cc1OC [Example 198, (R,E)-N-(1-(3,4-dimethoxyphenyl)ethyl)-3-(5-(3-(N,N-dimethylsulfamoyl)phenyl)-1H-pyrrolo[2,3-b]pyridin-3-yl)acrylamide]"
≤ 50,100 to 500,"C[C@@H](NC(=O)/C(C#N)=C/c1c[nH]c2ncc(-c3cnn(C)c3)cc12)c1ccccc1 [Example 91, (R,E)-2-cyano-3-(5-(1-methyl-1H-pyrazol-4-yl)-1H-pyrrolo[2,3-b]pyridin-3-yl)-N-(1-phenylethyl)acrylamide]"
≤ 50,> 10000,"COc1ccc([C@@H](C)NC(=O)/C(C#N)=C\c2c[nH]c3ncc(-c4ccc(C#N)cc4)cc23)cc1OC [Example 140, (R,Z)-2-cyano-3-(5-(4-cyanophenyl)-1H-pyrrolo[2,3-b]pyridin-3-yl)-N-(1-(3,4-dimethoxyphenyl)ethyl)acrylamide]"
≤ 50,500 to 1000,"COc1ccc([C@@H](C)NC(=O)/C(C#N)=C/c2c[nH]c3ncc(-c4ccc(N5CCN(C)CC5)cc4)cc23)cc1OC [Example 112, (R,E)-2-cyano-N-(1-(3,4-dimethoxyphenyl)ethyl)-3-(5-(4-(4-methylpiperazin-1-yl)phenyl)-1H-pyrrolo[2,3-b]pyridin-3-yl)acrylamide]"
